Source: PubChem BioAssay (NCI)
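Step 1: Grow cells in 96-well plates. Step 2: Expose to compound for 48 hours at 5 concentrations. Step 3: Interpolate endpoints linearly; if unreached, use highest concentration. GI50 is the concentration that inhibits growth by half. TGI is the concentration that stops growth completely.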

Assays:
Assay in all cases: NCI tumour cell line growth inhibition, 48 h
BT-549 breast = test system: BT-549 breast
HCC-2998 colon = test system: HCC-2998 colon
MDA-MB-231 breast = test system: MDA-MB-231 breast
PC-3 prostate = test system: PC-3 prostate
SF-539 CNS = test system: SF-539 CNS
SNB-75 CNS = test system: SNB-75 CNS
SR leukemia = test system: SR leukemia
T-47D breast = test system: T-47D breast
DMS 273 small cell lung = test system: DMS 273 small cell lung
KM20L2 colon = test system: KM20L2 colon
M19-MEL melanoma = test system: M19-MEL melanoma
P388/ADR leukemia = test system: P388/ADR leukemia

| SMILES | TGI (BT-549 breast) | TGI (HCC-2998 colon) | TGI (MDA-MB-231 breast) | TGI (PC-3 prostate) | TGI (SF-539 CNS) | TGI (SNB-75 CNS) | TGI (SR leukemia) | TGI (T-47D breast) | TGI (DMS 273 small cell lung) | TGI (KM20L2 colon) | TGI (M19-MEL melanoma) | TGI (P388/ADR leukemia) | GI50 (BT-549 breast) | GI50 (HCC-2998 colon) | GI50 (MDA-MB-231 breast) | GI50 (PC-3 prostate) | GI50 (SF-539 CNS) | GI50 (SNB-75 CNS) | GI50 (T-47D breast) | GI50 (SR leukemia) |
| --- | --- | --- | --- | --- | --- | --- | --- | --- | --- | --- | --- | --- | --- | --- | --- | --- | --- | --- | --- | --- |
| C=CCSSCC=C | > 81.5 µM | > 100 µM | > 100 µM | > 100 µM | > 71.9 µM | > 100 µM | 50.2 µM | > 100 µM |  |  |  |  |  |  |  |  |  |  |  |  |
| COc1ccc(NC(=S)N/N=C(\C)c2nc3ncccc3[nH]2)cc1 | 42.3 µM | > 100 µM | > 100 µM | 45.2 µM | 13.7 µM | 70.6 µM | > 100 µM | 92.4 µM |  |  |  |  |  |  |  |  |  |  |  |  |
| O=C1OC2CC=CC1C2 (stereo unspecified) |  | > 100 µM |  |  | > 100 µM | > 100 µM |  |  | > 100 µM | > 100 µM | > 100 µM | > 100 µM |  |  |  |  |  |  |  |  |
| CC(C)(C)c1ccc(/C=N/NC(=O)CSCC(=O)N/N=C/c2ccc(C(C)(C)C)cc2)cc1 |  | 4.8 µM | 2.43 µM | 18.2 µM |  | 20.1 µM | 3.76 µM | 26.3 µM |  |  |  |  |  |  |  |  |  |  |  |  |
| O=C(COc1ccc(Cl)c(Cl)c1)N(Cc1ccccc1)Cc1ccc[n+](Cc2ccc(Cl)cc2S(=O)(=O)F)c1 |  |  | 31.9 µM | > 100 µM | > 100 µM | > 100 µM | 52.4 µM | > 100 µM |  |  |  |  |  |  |  |  |  |  |  |  |
| O=C1CCCC2C3CC(CN12)C1CCCCN1C3 (stereo unspecified) | > 100 µM | > 100 µM | > 100 µM | > 100 µM | > 100 µM |  | > 100 µM | > 100 µM |  |  |  |  |  |  |  |  |  |  |  |  |
| C=C1C(=O)OC2CC1CCC1(C)OC1CCC(C)=CCCC2(C)O (stereo unspecified) |  | 15.2 µM |  |  | 10.5 µM | 19.5 µM |  |  | 9.89 µM | 8.58 µM | 11.8 µM | 10.8 µM |  |  |  |  |  |  |  |  |
| CN1CC(CNC(=O)OCc2ccccc2)CC2c3cccc4c3c(cn4C)CC21 (stereo unspecified) | 4.62 µM | 3.19 µM | 3.28 µM | 6.28 µM | 3.24 µM | 4.68 µM |  | 4.67 µM |  |  |  |  | 2.07 µM | 1.67 µM | 1.65 µM | 2.07 µM | 1.64 µM | 1.9 µM | 2.26 µM |  |
| Cc1cc(C)nc(SCCc2cccc[n+]2C)n1 | > 100 µM | > 100 µM | > 100 µM | > 100 µM |  | > 100 µM |  | > 100 µM |  |  |  |  |  |  |  |  |  |  |  |  |
| CC(=O)NNC(=O)C1CCCCN1 (stereo unspecified) | > 100 µM |  | > 100 µM | > 100 µM | > 100 µM |  | > 100 µM |  |  |  |  |  |  |  |  |  |  |  |  |  |
| O=C1OCc2cc3cc4c(cc3c(-c3ccc5c(c3)OCO5)c21)OCO4 (tested in a mixture with another compound) | > 100 µM | > 100 µM | 15.6 µM | > 100 µM |  |  | > 100 µM | > 100 µM |  |  |  |  |  |  |  |  |  |  |  |  |
| Cl/C(=C\C=Nc1ccc(I)cc1)c1ccc2ccccc2c1 | 47 µM | 17.8 µM | 36 µM | > 100 µM | 44.4 µM | > 79.9 µM | 19 µM | 61.9 µM |  |  |  |  |  |  |  |  |  |  |  |  |
| CC[C@]12C=CCN3CC[C@@]4(c5cc(Br)c(OC)cc5N(C)[C@H]4[C@@](O)(C(=O)N[C@@H](Cc4ccc(O)cc4)C(=O)OC)[C@@H]1O)[C@@H]32 | 41.4 µM | 94.6 µM | 30.6 µM | > 100 µM | 36.6 µM |  | 46.4 µM | > 100 µM |  |  |  |  |  |  |  |  |  |  |  |  |
| COc1c(OC/C=C(\C)CCC=C(C)C)ccc2ccc(=O)oc12 | > 100 µM | > 100 µM | > 100 µM | > 100 µM | > 100 µM | > 100 µM | > 100 µM | > 100 µM |  |  |  |  |  |  |  |  |  |  |  |  |
| O=C(Nc1ccc(Cl)c(Cl)c1)N1N=C2c3ccccc3CCC2C1c1ccc(Cl)cc1 (stereo unspecified) | > 100 µM | > 100 µM | > 100 µM | > 100 µM | > 100 µM | > 100 µM | > 100 µM | > 100 µM |  |  |  |  |  |  |  |  |  |  |  |  |
| COc1cc(/C=C/C(=O)CC(=O)/C=C/c2ccc(O)c(OC)c2)ccc1O | 13.7 µM | 8.08 µM | 55.7 µM | 26 µM | 8.87 µM | 18 µM | 14.6 µM | 46.9 µM |  |  |  |  |  |  |  |  |  |  |  |  |
| Br/C(=N\Nc1nn[nH]n1)c1ccncc1 | > 100 µM |  | > 100 µM | > 100 µM | > 100 µM | > 100 µM | > 100 µM | > 100 µM |  |  |  |  |  |  |  |  |  |  |  |  |
| c1ccc(C[N+]23CN4CN(CN(C4)C2)C3)cc1 | > 100 µM | 39.9 µM | 49.8 µM | 35.7 µM | 51.9 µM | > 100 µM |  | 87.4 µM |  |  |  |  |  |  |  |  |  |  |  |  |
| C=CCNS(=O)(=O)c1ncnc2nc[nH]c12 | > 100 µM |  | > 100 µM | > 100 µM |  | > 100 µM | > 100 µM | > 100 µM |  |  |  |  |  |  |  |  |  |  |  |  |
| COc1cc(S(=O)(=O)Nc2nc(-c3ccc(N4C(=O)/C(=C/c5ccccc5[N+](=O)[O-])N=C4c4ccccc4)cc3)cs2)ccc1Cl | 74.7 µM |  | 42.2 µM | > 100 µM | > 100 µM | > 100 µM | > 100 µM | > 100 µM |  |  |  |  |  |  |  |  |  |  |  |  |
| SC1CCCN(Cc2ccccc2)C1 (stereo unspecified) | > 100 µM | 31.4 µM | > 100 µM | > 100 µM | > 100 µM | > 100 µM | 71.5 µM | 94.1 µM |  |  |  |  |  |  |  |  |  |  |  |  |
| Cn1c2c3ccc(Cl)cc3nc-2c(Cl)c2ccccc21 | 50.1 µM | 20.5 µM | 97.8 µM | 38.1 µM | 49.2 µM | 55.1 µM | > 100 µM | > 100 µM |  |  |  |  |  |  |  |  |  |  |  |  |
| CCCC(=O)O.CCCC(=O)O.CCCC(=O)O.CCCC(=O)O.[Rh].[Rh] | 0.101 µM |  | 0.108 µM | 0.47 µM |  | 2.62 µM | 1.06 µM | 0.0985 µM |  |  |  |  | 0.0314 µM |  | 0.0322 µM | 0.0618 µM |  | 0.423 µM | 0.0312 µM | 0.0586 µM |
| CC(C)(C)OC(=O)NC1CCC(C(C)(C)C)CC1 (stereo unspecified) |  | > 100 µM |  |  | > 100 µM | > 100 µM |  |  | 99.2 µM | > 100 µM | > 86.7 µM | > 100 µM |  |  |  |  |  |  |  |  |
| O=C(/C=C/c1ccccc1)N1CCCCC1 | > 100 µM | > 100 µM | > 100 µM | > 100 µM | > 100 µM | 89.2 µM | > 100 µM | > 100 µM |  |  |  |  |  |  |  |  |  |  |  |  |
| O=C(Oc1ccc(Cl)cc1[N+](=O)[O-])c1ccccc1 |  | > 100 µM |  |  | > 100 µM | > 100 µM | > 100 µM |  | > 100 µM | > 100 µM | > 100 µM |  |  |  |  |  |  |  |  |  |
